The first experiment addresses T1, HDAC6 enzyme (Homo sapiens, UniProt Q9UBN7).
T1 construct: transducing full length HDAC6 gene into Sf-9 insect cells; GST; purchased SignalChem; host or cells: Sf-9 insect cells
T1 sequence (Q9UBN7 1-1215): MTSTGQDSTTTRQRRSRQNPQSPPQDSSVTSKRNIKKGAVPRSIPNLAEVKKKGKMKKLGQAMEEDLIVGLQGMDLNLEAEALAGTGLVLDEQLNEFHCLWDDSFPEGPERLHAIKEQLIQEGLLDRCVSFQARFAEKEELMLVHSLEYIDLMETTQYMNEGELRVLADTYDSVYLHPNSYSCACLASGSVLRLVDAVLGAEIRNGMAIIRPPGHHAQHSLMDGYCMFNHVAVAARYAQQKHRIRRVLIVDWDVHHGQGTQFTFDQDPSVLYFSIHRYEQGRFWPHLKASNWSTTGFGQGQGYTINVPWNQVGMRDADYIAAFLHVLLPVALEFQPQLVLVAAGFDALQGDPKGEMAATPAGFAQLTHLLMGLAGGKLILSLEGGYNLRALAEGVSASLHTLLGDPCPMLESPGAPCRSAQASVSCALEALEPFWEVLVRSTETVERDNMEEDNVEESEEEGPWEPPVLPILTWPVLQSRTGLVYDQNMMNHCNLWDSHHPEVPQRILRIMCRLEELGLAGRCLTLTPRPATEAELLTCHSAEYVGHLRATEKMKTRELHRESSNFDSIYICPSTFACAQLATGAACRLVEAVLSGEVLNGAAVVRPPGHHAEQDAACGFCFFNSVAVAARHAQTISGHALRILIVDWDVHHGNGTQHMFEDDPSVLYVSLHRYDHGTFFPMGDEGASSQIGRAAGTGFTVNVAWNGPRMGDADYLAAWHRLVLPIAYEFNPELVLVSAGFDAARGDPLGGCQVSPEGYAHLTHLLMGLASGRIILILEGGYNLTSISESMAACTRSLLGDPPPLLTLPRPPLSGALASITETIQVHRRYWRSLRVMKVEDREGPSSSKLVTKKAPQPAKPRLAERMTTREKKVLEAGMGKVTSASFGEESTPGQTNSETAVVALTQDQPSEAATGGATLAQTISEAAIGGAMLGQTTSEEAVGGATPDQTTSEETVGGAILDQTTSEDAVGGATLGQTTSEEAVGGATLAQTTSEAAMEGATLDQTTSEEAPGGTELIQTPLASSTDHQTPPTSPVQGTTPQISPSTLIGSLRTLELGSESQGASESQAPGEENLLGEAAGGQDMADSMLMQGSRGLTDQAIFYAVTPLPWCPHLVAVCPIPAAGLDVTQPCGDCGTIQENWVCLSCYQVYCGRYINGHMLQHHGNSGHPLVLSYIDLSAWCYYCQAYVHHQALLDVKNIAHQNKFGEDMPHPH
Briefly: HDAC6 enzyme inhibitory activity (HDAC-Glo I/II Assay kit). It is filed as biochemical. The settings on record: 10 μM; wells without enzyme = 100% inhibition; read-out: HDAC6 inhibitory rate (%) (10 μM). Put shortly: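 Inhibition is calculated as relative activity, taking luminescence in enzyme-free wells as complete inhibition. The enzyme, full-length and GST-purified after Sf-9 expression, was exposed to compound for 60 min at room temperature before a 20 min HDAC-Glo reaction.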
Regarding `O=C1c2cc(-c3nnc(C(F)F)o3)ccc2CN1CCOc1ccccc1` [Example 209, 6-(5-(difluoromethyl)-1,3,4-oxadiazol-2-yl)-2-(2-phenoxyethyl)isoindolin-1-one], the inhibition at 10 µM was found to be 107%.
With `CCC(F)(F)C(=O)N[C@@H]1CCCC[C@H]1N1Cc2c(F)cc(-c3nnc(C(F)F)o3)cc2C1=O` [Example 210, N-((1R,2R)-2-(6-(5-(difluoromethyl)-1,3,4-oxadiazol-2-yl)-4-fluoro-1-oxo-1,3-dihydro-2H-isoindol-2-yl)cyclohexyl)-2,2-difluorobutanamide], the inhibition at 10 µM stood at 101%.
Same read-out and setting: next, `CC1(C(=O)N[C@@H]2CCCC[C@H]2N2Cc3c(F)cc(-c4nnc(C(F)F)o4)cc3C2=O)COC1` [Example 211, N-((1R,2R)-2-(6-(5-(difluoromethyl)-1,3,4-oxadiazol-2-yl)-4-fluoro-1-oxo-1,3-dihydro-2H-isoindol-2-yl)cyclohexyl)-3-methyloxetane-3-carboxamide]: 100%; `O=C1c2cc(-c3nnc(C(F)F)o3)cc(F)c2CN1[C@@H]1CCOC[C@H]1NC(=O)C1(C(F)(F)F)CCC1` [Example 212, N-((3S,4R)-4-(6-(5-(difluoromethyl)-1,3,4-oxadiazol-2-yl)-4-fluoro-1-oxo-1,3-dihydro-2H-isoindol-2-yl)tetrahydro-2H-pyran-3-yl)-1-(trifluoromethyl)cyclobutanecarboxamide]: 101%; `CC(C)(OC(=O)N[C@@H]1COCC[C@H]1N1Cc2c(F)cc(-c3nnc(C(F)F)o3)cc2C1=O)C(F)(F)F` [Example 213, 1,1,1-trifluoro-2-methylpropan-2-yl ((3S,4R)-4-(6-(5-(difluoromethyl)-1,3,4-oxadiazol-2-yl)-4-fluoro-1-oxo-1,3-dihydro-2H-isoindol-2-yl)tetrahydro-2H-pyran-3-yl)carbamate]: 100%.
`CC(C)(F)C(=O)N[C@@H]1CCCC[C@H]1N1Cc2ncc(-c3nnc(C(F)F)o3)cc2C1=O` [Example 214, N-((1R,2R)-2-(3-(5-(difluoromethyl)-1,3,4-oxadiazol-2-yl)-5-oxo-5,7-dihydro-6H-pyrrolo[3,4-b]pyridin-6-yl)cyclohexyl)-2-fluoro-2-methylpropanamide]: the inhibition at 10 µM came to 100%.
For `O=C1c2cc(-c3nnc(C(F)F)o3)cnc2CN1[C@@H]1CCCC[C@H]1NC(=O)C(F)(F)F` [Example 215, N-((1R,2R)-2-(3-(5-(difluoromethyl)-1,3,4-oxadiazol-2-yl)-5-oxo-5,7-dihydro-6H-pyrrolo[3,4-b]pyridin-6-yl)cyclohexyl)-2,2,2-trifluoroacetamide], the inhibition at 10 µM stood at 101%.
Same read-out and setting: as for `O=C1c2cc(-c3nnc(C(F)F)o3)cnc2CN1[C@@H]1CCCC[C@H]1NC(=O)C1(F)CC1` [Example 216, N-((1R,2R)-2-(3-(5-(difluoromethyl)-1,3,4-oxadiazol-2-yl)-5-oxo-5,7-dihydro-6H-pyrrolo[3,4-b]pyridin-6-yl)cyclohexyl)-1-fluorocyclopropanecarboxamide], the figure is 100%; as for `CC(C)(C(=O)N[C@@H]1CCCC[C@H]1N1Cc2ncc(-c3nnc(C(F)F)o3)cc2C1=O)C(F)(F)F` [Example 217, N-((1R,2R)-2-(3-(5-(difluoromethyl)-1,3,4-oxadiazol-2-yl)-5-oxo-5,7-dihydro-6H-pyrrolo[3,4-b]pyridin-6-yl)cyclohexyl)-3,3,3-trifluoro-2,2-dimethylpropanamide], 98%.
Same read-out and setting: next, `O=C1c2cc(-c3nnc(C(F)F)o3)cnc2CN1[C@@H]1CCCC[C@H]1NC(=O)C1(F)CCC1` [Example 218, N-((1R,2R)-2-(3-(5-(difluoromethyl)-1,3,4-oxadiazol-2-yl)-5-oxo-5,7-dihydro-6H-pyrrolo[3,4-b]pyridin-6-yl)cyclohexyl)-1-fluorocyclobutanecarboxamide]: 100%.
The same measure, in the same setting: as for `O=C1c2cc(-c3nnc(C(F)F)o3)cnc2CN1[C@@H]1CCCC[C@H]1NC(=O)C1(C(F)(F)F)CCC1` [Example 219], the figure is 100%; as for `O=C1c2cc(-c3nnc(C(F)F)o3)ccc2CN1[C@@H]1CCCC[C@H]1O` [Example 220, 6-(5-(difluoromethyl)-1,3,4-oxadiazol-yl)-2-((1R,2R)-2-hydroxycyclohexyl)-isoindolin-1-one], 94%.
As to `O=C1c2cc(-c3nnc(C(F)F)o3)cnc2CN1[C@@H]1CCCC[C@H]1NC(=O)C1(c2ccc(F)cc2)CC1` [Example 221, N-((1R,2R)-2-(3-(5-(difluoromethyl)-1,3,4-oxadiazol-2-yl)-5-oxo-5,7-dihydro-6H-pyrrolo[3,4-b]pyridin-6-yl)cyclohexyl)-1-(4-fluorophenyl)-cyclopropanecarboxamide], the inhibition at 10 µM amounted to 101%.
The same measure, in the same setting: as for `O=C(N[C@@H]1CCCC[C@H]1N1Cc2ncc(-c3nnc(C(F)F)o3)cc2C1=O)c1ccccc1F` [Example 222, N-((1R,2R)-2-(3-(5-(difluoromethyl)-1,3,4-oxadiazol-2-yl)-5-oxo-5,7-dihydro-6H-pyrrolo[3,4-b]pyridin-6-yl)cyclohexyl)-2-fluorobenzamide], the figure is 99%; as for `N#Cc1ccccc1C(=O)N[C@@H]1CCCC[C@H]1N1Cc2ncc(-c3nnc(C(F)F)o3)cc2C1=O` [Example 223, 2-cyano-N-((1R,2R)-2-(3-(5-(difluoro-methyl)-1,3,4-oxadiazol-2-yl)-5-oxo-5,7-dihydro-6H-pyrrolo[3,4-b]-pyridin-6-yl)cyclohexyl)benzamide], 99%; as for `O=C(N[C@@H]1CCCC[C@H]1N1Cc2ncc(-c3nnc(C(F)F)o3)cc2C1=O)c1cccc(F)c1` [Example 224, N-((1R,2R)-2-(3-(5-(difluoromethyl)-1,3,4-oxadiazol-2-yl)-5-oxo-5,7-dihydro-6H-pyrrolo[3,4-b]pyridin-6-yl)cyclohexyl)-3-fluorobenzamide], 100%.
Same read-out and setting: as for `N#Cc1cccc(C(=O)N[C@@H]2CCCC[C@H]2N2Cc3ncc(-c4nnc(C(F)F)o4)cc3C2=O)c1` [Example 225, 3-cyano-N-((1R,2R)-2-(3-(5-(difluoro-methyl)-1,3,4-oxadiazol-2-yl)-5-oxo-5,7-dihydro-6H-pyrrolo[3,4-b]pyridin-6-yl)cyclohexyl)benzamide], the figure is 98%; as for `O=C(N[C@@H]1CCCC[C@H]1N1Cc2ncc(-c3nnc(C(F)F)o3)cc2C1=O)c1cccc(C(F)(F)F)c1` [Example 226, N-((1R,2R)-2-(3-(5-(difluoromethyl)-1,3,4-oxadiazol-2-yl)-5-oxo-5,7-dihydro-6H-pyrrolo[3,4-b]pyridin-6-yl)cyclohexyl)-3-(trifluoromethyl)-benzamide], 99%.
Still for that read-out and setting: as for `O=C1c2cc(-c3nnc(C(F)F)o3)cc(F)c2CN1C[C@H]1COCCN1CC(F)(F)C(F)(F)F` [Example 227, 6-(5-(difluoromethyl)-1.3,4-oxadiazol-2-yl)-4-fluoro-2-(((3S)-4-(2,2,3,3,3-pentafluoropropyl)morpholin-3-yl)-methyl)isoindolin-1-one], the figure is 100%; as for `O=C1c2cc(-c3nnc(C(F)F)o3)cc(F)c2CN1C[C@H]1COCCN1CC(F)(F)C(F)F` [Example 228, 6-(5-(difluoromethyl)-1,3,4-oxadiazol-2-yl)-4-fluoro-2-(((3S)-4-(2,2,3,3-tetrafluoropropyl)morpholin-3-yl)-methyl)isoindolin-1-one], 98%; as for `N#Cc1ccccc1-c1ccccc1N1Cc2ccc(-c3nnc(C(F)F)o3)cc2C1=O` [Example 230, 2′-(6-(5-(difluoromethyl)-1,3,4-oxadiazol-2-yl)-1-oxo-1,3-dihydro-2H-isoindol-2-yl)-biphenyl-2-carbonitrile], 100%.

The same experiment, now with this note: read-out: HDAC6 inhibitory rate (%) (10 μM).
In the case of `O=C1c2cc(-c3nnc(C(F)F)o3)cc(F)c2CN1C[C@H]1COCCN1CC(F)(F)C(F)(F)C(F)(F)F` [Example 229, 6-(5-(difluoromethyl)-1,3,4-oxadiazol-2-yl)-4-fluoro-2-(((3S)-4-(2,2,3,3,4,4,4-heptafluorobutyl)-morpholin-3-yl)methyl)isoindolin-1-one], the inhibition at 10 µM amounted to 100%.

Values taken from US10435399B2, “HDAC6 inhibitory heterocyclic compound” (TAKEDA PHARMACEUTICAL COMPANY LIMITED, priority 2017, dated 2019).
